Key:
[1] = system: collagen peptide; experiment: Complex formability of theaflavins and epicatechin with collagen peptide (total Hyp in supernatant / complex); type: binding, pig; details: catechin 0.2 μmol in 1 ml
Description: (§1) Collagen peptide (dry powder of the pig skin-derived collagen hydrolysate, the average molecular weight: 3000-5000, manufactured by Nippi, Inc.) was dissolved in water so that the specified concentration is achieved.
A supernatant was obtained by adding the triple volume (v/v) of ethanol to the aqueous solution and centrifuging (10,000×g, 15 min). The supernatant was hydrolyzed with hydrochloric acid (under reduced pressure, 150° C., and 1 hour). After the PITC treatment, the amount of PTC-Hyp (=the total amount of Hyp in the solution) was determined by carrying out reverse-phase chromatography (column: LiChroCART 250-4 (manufactured by Merck)). The amount of PTC-Hyp (=the amount of free Hyp) was determined by carrying out the PITC treatment/reverse-phase chromatography for the supernatant without hydrochloric acid hydrolysis.
The respective aqueous solutions of theaflavins and epicatechin (1 mg/ml) and collagen peptide aqueous solution (200 mg/ml) were prepared, and they were raised at room temperature so that the below-described contents are attained. In the test examples of the present patent application, the following reagents were used.
After mixing, the supernatant and precipitate were separated by centrifuging (8,000×g, […]). According to Method 4, the total amount of Hyp was determined for the supernatant (=“the total amount of Hyp in the supernatant”). “The total amount of Hyp in the complex” was calculated by subtracting “the total amount of Hyp in the supernatant” from the amount of collagen peptide used in the above reaction (2 mg or 10 mg).

[2] = system: collagen peptide; experiment: Coprecipitation of black tea components with collagen peptide, reverse-phase chromatography; type: binding, pig; details: black tea A 200 ml + collagen peptide 5 g, FIG. 7B
Description: as §1
To black tea A (200 ml), collagen peptide (5 g) was added and mixed; the supernatant and precipitate were separated by centrifuging (10,000×g, for 10 minutes) (Example 6). To determine the components, of the black tea A before the addition of the collagen peptide (FIG. 7A), the supernatant after centrifuging (FIG. 7B), and the precipitate solubilized with SDS (FIG. 7C), were analyzed by reverse-phase chromatography (column: Cosmosil 5C18-AR-II (manufactured by Nacalai Tesque, Inc.), mobile phase: 0.1% formic acid-containing acetonitrile, detection: 215 nm, 280 nm), respectively.

Compound | Total Hyp in the complex (%) ([1]; Collagen peptide 2 mg) | Total Hyp in the supernatant (%) ([1]; Collagen peptide 2 mg) | Total Hyp in the complex (%) ([1]; Collagen peptide 10 mg) | Total Hyp in the supernatant (%) ([1]; Collagen peptide 10 mg) | fate of black tea component in the supernatant after mixing with collagen peptide and centrifuging [2]
O=C(O[C@@H]1Cc2c(O)cc(O)cc2O[C@@H]1c1cc(=O)c(O)c2c(O)c(O)cc([C@H]3Oc4cc(O)cc(O)c4C[C@H]3O)c2c1)c1cc(O)c(O)c(O)c1 [Example 9, theaflavin-3-gallate] | 87.0 | 13.0 | 86.6 | 13.4 | disappeared from the supernatant
O=C(O[C@@H]1Cc2c(O)cc(O)cc2O[C@@H]1c1ccc(O)c(O)c1)c1cc(O)c(O)c(O)c1 [epicatechin gallate] |  |  |  |  | remained mostly in the supernatant
Cn1c(=O)c2c(ncn2C)n(C)c1=O [caffeine] |  |  |  |  | remained mostly in the supernatant
O=C(O[C@@H]1Cc2c(O)cc(O)cc2O[C@@H]1c1cc(O)c(O)c(O)c1)c1cc(O)c(O)c(O)c1 [epigallocatechin gallate] |  |  |  |  | remained mostly in the supernatant
theaflavin-3,3′-digallate [Example 11] | 98.0 | 2.0 | 97.8 | 2.2 | disappeared from the supernatant
theaflavin-3′-gallate [Example 10] | 97.7 | 2.3 | 90.5 | 9.5 | disappeared from the supernatant
O=c1c(O)cc([C@H]2Oc3cc(O)cc(O)c3C[C@H]2O)cc2c([C@H]3Oc4cc(O)cc(O)c4C[C@H]3O)cc(O)c(O)c12 [Example 8, theaflavin] | 86.5 | 13.5 | 83.8 | 16.2 | disappeared from the supernatant
